Measured values from patent publication US20070155779A1, “BICYCLIC HETEROARYL COMPOUNDS AS PDE10 INHIBITORS” (Pfizer Inc, priority 2006, published 2007).
pIC50: −log10 of the molar value.

Biological target: PDE10 (Homo sapiens, UniProt Q9Y233)
Assay: PDE10 inhibition, Scintillation Proximity Assay (SPA)
Type: biochemical
Conditions: substrate at 1/3 Km, IC50 approximates Ki
Experimental: Assay methods are available to screen a substance for inhibition of cyclic nuticleotide hydrolysis by the PDE10 and the PDEs from other gene families. The cyclic nucleotide substrate concentration used in the assay is ⅓ of the Km concentration, allowing for comparisons of IC50 values across the different enzymes. PDE activity is measured using a Scintillation Proximity Assay (SPA)-based method as previously described (Fawcett et al., 2000), The effect of PDE inhibitors is determined by assaying a fixed amount of enzyme (PDEs 1-11) in the presence of varying substance concentrations and low substrate, such that the IC50 approximates the Ki (cGMP or cAMP in a 3:1 ratio unlabelled to [^3H]-labeled at a concentration of ⅓ Km).). The final assay volume is made up to 100 μl with assay buffer [20 mM Tris-HCl pH 7.4, 5 mM MgCl2, 1 mg/ml bovine serum albumin]. Reactions are initiated with enzyme, incubated for 30-60 min at 30° C. to give <30% substrate turnover and terminated with 50 μl yttrium silicate SPA beads (Amersham) (containing 3 mM of the respective unlabelled cyclic nucleotide for PDEs 9 and 11). Plates are re-sealed and shaken for 20 min, after which the beads were allowed to settle for 30 minutes in the dark and then counted on a TopCount plate reader (Packard, Meriden, Conn.).

PDE10, sequence (Q9Y233 whole entry): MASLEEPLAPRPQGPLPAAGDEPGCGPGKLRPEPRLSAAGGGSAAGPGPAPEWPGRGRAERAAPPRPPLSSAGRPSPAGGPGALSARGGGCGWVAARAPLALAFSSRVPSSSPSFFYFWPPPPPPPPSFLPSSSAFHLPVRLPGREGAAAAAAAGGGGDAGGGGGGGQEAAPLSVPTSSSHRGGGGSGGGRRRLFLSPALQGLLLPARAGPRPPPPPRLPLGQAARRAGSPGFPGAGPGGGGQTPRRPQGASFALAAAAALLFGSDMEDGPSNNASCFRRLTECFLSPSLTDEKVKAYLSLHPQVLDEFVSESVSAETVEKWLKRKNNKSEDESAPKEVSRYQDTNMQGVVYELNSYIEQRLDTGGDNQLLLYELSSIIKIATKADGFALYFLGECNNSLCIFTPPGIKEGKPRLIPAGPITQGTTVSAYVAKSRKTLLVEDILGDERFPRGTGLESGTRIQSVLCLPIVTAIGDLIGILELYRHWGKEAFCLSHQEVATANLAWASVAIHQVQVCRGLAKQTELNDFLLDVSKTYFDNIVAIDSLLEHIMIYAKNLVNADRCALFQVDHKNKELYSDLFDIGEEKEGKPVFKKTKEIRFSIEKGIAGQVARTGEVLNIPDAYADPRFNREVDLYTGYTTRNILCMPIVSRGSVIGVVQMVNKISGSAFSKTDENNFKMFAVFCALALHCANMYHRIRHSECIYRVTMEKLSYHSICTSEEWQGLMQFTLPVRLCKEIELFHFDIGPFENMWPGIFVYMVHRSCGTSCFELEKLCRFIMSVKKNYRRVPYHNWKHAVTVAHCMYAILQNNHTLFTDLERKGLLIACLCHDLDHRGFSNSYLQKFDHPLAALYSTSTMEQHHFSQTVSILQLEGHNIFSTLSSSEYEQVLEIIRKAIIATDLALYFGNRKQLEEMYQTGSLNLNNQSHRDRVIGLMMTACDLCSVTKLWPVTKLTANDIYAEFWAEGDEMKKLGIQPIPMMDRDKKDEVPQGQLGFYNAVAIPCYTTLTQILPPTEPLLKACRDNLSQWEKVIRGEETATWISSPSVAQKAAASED

Row | pIC50 | SMILES
1 | 7.10 | Cn1c(COc2ccc(-c3n[nH]cc3-c3ccncc3)cc2)nc2ccccc21 [Example 1, 1-Methyl-2-[4-(4-pyridin-4-yl-1H-pyrazol-3-yl)-phenoxymethyl]-1H-benzoimidazole]
2 | 8.86 | CCn1cc(-c2ccncc2)c(-c2ccc(OCc3nc4ccccc4n3C)cc2)n1 [Example 2, 2-[4-(1-Ethyl-4-pyridin-4-yl-1-H-pyrazol-3-yl)-phenoxylmethyl]-1-methyl-1-1H-benzoimidazole]
3 | 8.59 | C[C@@H](O)Cn1cc(-c2ccncc2)c(-c2ccc(OCc3nc4ccccc4n3C)cc2)n1 [Example 3, 1-{3-[4(1-Methyl-1H-benzoimidazol-2-ylmethoxy)-phenyl]-4-pyridin-4-yl-pyrazol-1-yl)-propan-2-ol]
4 | 8.31 | Cn1c(COc2ccc(-c3oncc3-c3ccncc3)cc2)nc2ccccc21 [Example 4, 1-Methyl-2-[4-(4-pyridin-4-yl-isoxazol-5-yl)-phenoxymethyl]-1-H-benzoimidazole]
5 | 9.25 | Cn1cc(-c2ccncc2)c(-c2ccc(OCc3nc4ccccc4n3C)cc2)n1 [Example 5, 1-Methyl-2-[4-(1-methyl-4-pyridin-4-yl-1H-pyrazol-3-yl)-phenoxymethyl]-1-H-benzoimidazole]
6 | 8.74 | Cn1ncc(-c2ccncc2)c1-c1ccc(OCc2nc3ccccc3n2C)cc1 [Example 6, 1-Methyl-2-[4-(2 methyl-4-pyridin-4-yl-2H-pryazol-3-yl)-phenoxymethyl]-1H-benzoimidazole]
7 | 9.01 | Cn1cc(-c2ccncc2)c(-c2ccc(OCc3nc4ccccc4n3CF)cc2)n1 [Example 7, 1-Fluoromethyl-2-[4-(1-methyl-4-pyridin-4-yl-1H-pyrazol-3-yl)-phenoxymethyl]-1H-benzoimidazole]
8 | 8.05 | CC(C)n1c(COc2ccc(-c3nn(C)cc3-c3ccncc3)cc2)nc2ccccc21 [Example 8, 1-Isopropyl-2-[4-(1-methyl-4-pyridin-4-yl-1H-pyrazol-3-yl)-phenoxymethyl]-1H-benzoimidazole]
9 | 9.16 | Cn1cc(-c2ccncc2)c(-c2ccc(OCc3nc4ccccc4n3C3CC3)cc2)n1 [Example 9, 1-Cyclopropyl-2-[4-(1-methyl-4-pyridin-4-yl-1H-pyrazol-3-yl)-phenoxymethyl]-1-H-benzoimidazole]
10 | 8.80 | COCCn1c(COc2ccc(-c3nn(C)cc3-c3ccncc3)cc2)nc2ccccc21 [Example 10, 1-(2-Methoxy-ethyl)-2[4-(1-methyl-4-pyridin-4-yl-1H-pyrazol-3-yl)-phenoxymethyl]-1H-benzoimidazole]
11 | 9.28 | Cn1cc(-c2ccncc2)c(-c2ccc(OCc3cn4ccccc4n3)cc2)n1 [Example 11, 2-[4-(1-Methyl-4-pyridin-4yl-1H-pyrazol-3-yl)-phenoxymethyl]-imidazo[1,2-a]pyridine]
12 | 9.28 | Cn1ncc(-c2ccncc2)c1-c1ccc(OCc2cn3ccccc3n2)cc1 [Example 12]
13 | 8.94 | Cn1cc(-c2ccncc2)c(-c2ccc(OCc3nc4ccccn4n3)cc2)n1 [Example 13, 2-[4-(1-Methyl-4-pyridin-4-yl-1H-pyrazol-3-yl)-phenoxymethyl]-[1,2,4]triazolo[1,5-a]-pyridine]
14 | 9.25 | FC(F)(F)Cn1cc(-c2ccncc2)c(-c2ccc(OCc3nc4ccccn4n3)cc2)n1 [Example 14, 2-{4-[4-Pyridin-4-yl-1-(2,2,2-trifluoro-ethyl)-1-H-pyrazol-3-yl]-phenoxymethyl}-[1,2,4]triazolo[1,5-a]pyridine]
15 | 9.41 | FC(F)(F)Cn1cc(-c2ccncc2)c(-c2ccc(OCc3cn4ccccc4n3)cc2)n1 [Example 15]
16 | 9.68 | Cn1c(COc2ccc(-c3nn(CC(F)(F)F)cc3-c3ccncc3)cc2)nc2ccccc21 [Example 16, 1-Methyl-2-{4-[4-pyridin-4-yl-1-(2,2,2-trifluoro-ethyl)-1H-pyrazol-3yl]-phenoxymethyl}-1H-benzoimidazole]

Row | pIC50 | SMILES
17 | 9.12 | FCn1c(COc2ccc(-c3nn(CC(F)(F)F)cc3-c3ccncc3)cc2)nc2ccccc21 [Example 17, 1-Fluoromethyl-2-{4-[4-pyridin-4-yl-1-(2.2.2-trifluoro-ethyl)-1-H-pyrazol-3-yl]-phenoxymethyl}-1H-benzoimidazole]
18 | 8.03 | Cn1cc(-c2ccncc2)c(-c2ccc(OCc3nc4ncccc4n3C)cc2)n1 [Example 18]
19 | 6.88 | Cn1cc(-c2ccncc2)c(-c2ccc(OCc3nc4cnccc4n3C)cc2)n1 [Example 19, 1-Methyl-2-[4-(1-methyl-4-pyridin-4-yl-1H-pyrazol-3-yl)-phenoxymethyl]-1-H-imidazo[4,5-c]pyridine]
20 | 7.78 | Cn1cc(-c2ccncc2)c(-c2ccc(OCc3nc4cc(F)c(F)cc4n3C)cc2)n1 [Example 20, 5,6-Difluoro-1-methyl-2-[4-(1-methyl-4-pyridin-4-yl-1H-pyrazol-3-yl)-phenoxymethyl]-1H-benzoimidazole]
21 | 9.05 | Cn1cc(-c2ccncc2)c(-c2ccc(OCc3nc4ccccc4s3)cc2)n1 [Example 21, 2-[4-(1-Methyl-4-pyridin-4-yl-1H-pyrazol-3-yl)-phenoxymethyl]-benzothiazole]
22 | 8.83 | FC(F)(F)Cn1cc(-c2ccncc2)c(-c2ccc(OCc3nc4ccccc4s3)cc2)n1 [Example 22, 2-{4-[4-Pyridin-4-yl-1-(2,2 2-trifluoro-ethyl)-1H-pyrazol-3-yl]-phenoxymethyl}-benzothiazole]
23 | 8.51 | Cn1cc(-c2ccncc2)c(-c2ccc(OCc3nc4cccc5c4n3CCC5)cc2)n1 [Example 23, 2-[4-(1-Methyl-4-pyridin-4-yl-1H-pyrazol-3-yl)-phenoxymethyl]-5,6-dihydro-4H-imidazo[4,5,1-ij]quinoline]
24 | 8.85 | Cc1c(COc2ccc(-c3nn(C)cc3-c3ccncc3)cc2)nc2ccccn12 [Example 24, 3-Methyl-2-[4-(1-methyl-4-pyridin-4-yl-1H-pyrazol-3-yl)-phenoxymethyl]-imidazo[1,2-a]pyridine]
25 | 8.00 | Cn1cc(-c2ccncc2)c(-c2ccc(OCc3nc4ccccc4n3CC(F)(F)F)cc2)n1 [Example 25, 2-[4-(1-Methyl-4-pyridin-4-yl-1H-pyrazol-3-yl)-phenoxymethyl]-1-(2,2,2trifluoro-ethyl)-1H-benzoimidazole]
26 | 8.52 | Cn1c(COc2ccc(-n3nccc3-c3ccncc3)cc2)nc2ccccc21 [Example 26, 1-Methyl-2-[4-(5-pyridin-4-yl-pyrazol-1-yl)-phenoxymethyl]-1H-benzoimidazole]
27 | 7.79 | Cn1cc(-c2ccncc2)c(-c2ccc(CCc3nc4ccccc4n3C)cc2)n1 [Example 27, 1-Methyl-2{2-[4-(1methyl-4-pyridin-4-yl-1H-pyrazol-3-yl)-phenyl]-ethyl}-1H-benzoimidazole]
28 | 7.33 | Cn1c(COc2ccc(-c3nncn3-c3ccncc3)cc2)nc2ccccc21 [Example 28, 1-Methyl-2[4-(4-pyridin-4-yl-4H-[1,2,4]triazol-3-yl)-phenoxymethyl]-1H-benzoimidazole]
29 | 7.92 | Cn1cc(-c2ccncc2)c(-c2ccc(OCc3cn4ccsc4n3)cc2)n1 [Example 32, 6-[4-(1-Methyl-4-pyridin-4-yl-1H-pyrazol-3-yl)-phenoxymethyl]-imidazo[2,1-b]thiazole]
30 | 7.54 | Cn1c(COc2ccc(-n3ccnc3-c3ccncc3)cc2)nc2ccccc21 [Example 37, 2-((4-(2-(pyridin-4-yl)-1H-imidazol-1-yl)phenoxy)methyl)-1-methyl-1H-benzo[d]imidazole]
31 | 8.05 | Oc1ccc(-n2ccnc2-c2ccncc2)cc1 [Preparation 37, 4-(2-(pyridin-4-yl)-1H-imidazol-1-yl)phenol]
